Source: patent US20250243203A1, “NICOTINAMIDE- AND BENZAMIDE-BASED COMPOUNDS, CONJUGATES, AND COMPOSITIONS AS INHIBITORS OF TRANSLATIONAL- AND TRANSCRIPTIONAL-RELATED KINASES” (PURDUE RESEARCH FOUNDATION, priority 2022, published 2025)
Read-outs that look alike come from different tables or passages of the source. Values belong to the molecule of their own block, whether it stands above or below them.

Legend:
[1] = test system: MDA-MB-231 (breast cancer); assay: Growth inhibition of MDA-MB-231 (NCI-60 human tumor cell line screen); assay type: cell-based; conditions: NCI-60 screening
[2] = patients on ponatinib; cited from earlier work
[3] = biological target: p70S6K (Homo sapiens, UniProt P23443); assay: p70S6K inhibition, in vitro studies at Reaction Biology Corporation; assay type: biochemical; conditions: 25 nM compound, [ATP]=10 uM
Method: The nature of the substituent on the imidazo[1,2-b]pyridazine moiety at position-6 was evaluated in in vitro studies performed at Reaction Biology Corporation (Malvern, PA). The results indicated the specific substituent dramatically affected the inhibition of p70S6K.

[4] = biological target: T1, MER Proto-Oncogene tyrosine kinase (MERTK) (Homo sapiens, UniProt Q12866); assay: KINOMEscan competition binding assay (Eurofins DiscoverX), MERTK
T1 construct: purchased Eurofins DiscoverX (KINOMEscan service)
T1 sequence (Q12866 21-999): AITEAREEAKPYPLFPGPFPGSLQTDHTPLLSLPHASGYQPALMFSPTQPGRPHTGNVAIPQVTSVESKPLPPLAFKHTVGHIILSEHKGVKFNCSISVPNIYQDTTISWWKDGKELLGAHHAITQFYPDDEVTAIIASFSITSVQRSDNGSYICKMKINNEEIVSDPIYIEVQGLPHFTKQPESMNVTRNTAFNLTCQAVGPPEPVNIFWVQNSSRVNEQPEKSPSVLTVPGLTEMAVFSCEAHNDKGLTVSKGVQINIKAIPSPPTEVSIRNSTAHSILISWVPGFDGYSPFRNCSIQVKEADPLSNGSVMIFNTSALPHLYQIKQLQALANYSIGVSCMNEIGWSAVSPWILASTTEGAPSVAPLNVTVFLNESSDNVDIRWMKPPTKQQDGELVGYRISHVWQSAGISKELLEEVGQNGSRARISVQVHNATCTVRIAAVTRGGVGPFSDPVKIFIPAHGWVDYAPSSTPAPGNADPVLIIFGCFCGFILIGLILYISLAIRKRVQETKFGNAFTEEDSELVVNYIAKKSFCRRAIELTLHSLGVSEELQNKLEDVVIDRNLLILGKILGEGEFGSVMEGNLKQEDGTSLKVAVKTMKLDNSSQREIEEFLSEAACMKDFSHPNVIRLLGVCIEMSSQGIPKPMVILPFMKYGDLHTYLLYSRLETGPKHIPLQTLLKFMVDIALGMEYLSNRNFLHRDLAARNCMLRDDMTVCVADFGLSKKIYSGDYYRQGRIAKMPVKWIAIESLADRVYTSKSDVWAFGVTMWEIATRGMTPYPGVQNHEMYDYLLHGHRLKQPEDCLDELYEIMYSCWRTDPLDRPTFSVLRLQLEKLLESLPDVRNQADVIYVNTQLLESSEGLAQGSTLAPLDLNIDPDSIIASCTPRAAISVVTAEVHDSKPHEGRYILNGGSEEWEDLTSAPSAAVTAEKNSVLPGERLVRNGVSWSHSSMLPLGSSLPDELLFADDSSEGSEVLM
Method: The affinity of several compounds hereof having a substituent on the imidazo[1,2-b]pyridazine moiety at position-6, wherein the substituent comprised one or more ring moieties was evaluated with respect to two TAM kinases: AXL and MERTK. Perhaps more specifically, the equilibrium dissociation constant between each of compounds HSND141, compound HSND149, HSND150, HSND151, and HSND80 and AXL and MERTK was evaluated at Eurofins DiscoverX using KINOMEscan™, which is a competition binding assay that quantitively measured the ability of each tested compound to displace an immobilized, active-site directed ligand. The assay uses DNA-tagged kinase, an immobilized ligand, and the test compound. Quantitative polymerase chain reaction (PCR) of the DNT tag was then used to measure the ability of the tested compound to displace the immobilized ligand.

[5] = biological target: T2, AXL receptor tyrosine kinase (AXL) (Homo sapiens, UniProt P30530); assay: KINOMEscan competition binding assay (Eurofins DiscoverX), AXL
T2 construct: purchased Eurofins DiscoverX (KINOMEscan service)
T2 sequence (P30530 26-894): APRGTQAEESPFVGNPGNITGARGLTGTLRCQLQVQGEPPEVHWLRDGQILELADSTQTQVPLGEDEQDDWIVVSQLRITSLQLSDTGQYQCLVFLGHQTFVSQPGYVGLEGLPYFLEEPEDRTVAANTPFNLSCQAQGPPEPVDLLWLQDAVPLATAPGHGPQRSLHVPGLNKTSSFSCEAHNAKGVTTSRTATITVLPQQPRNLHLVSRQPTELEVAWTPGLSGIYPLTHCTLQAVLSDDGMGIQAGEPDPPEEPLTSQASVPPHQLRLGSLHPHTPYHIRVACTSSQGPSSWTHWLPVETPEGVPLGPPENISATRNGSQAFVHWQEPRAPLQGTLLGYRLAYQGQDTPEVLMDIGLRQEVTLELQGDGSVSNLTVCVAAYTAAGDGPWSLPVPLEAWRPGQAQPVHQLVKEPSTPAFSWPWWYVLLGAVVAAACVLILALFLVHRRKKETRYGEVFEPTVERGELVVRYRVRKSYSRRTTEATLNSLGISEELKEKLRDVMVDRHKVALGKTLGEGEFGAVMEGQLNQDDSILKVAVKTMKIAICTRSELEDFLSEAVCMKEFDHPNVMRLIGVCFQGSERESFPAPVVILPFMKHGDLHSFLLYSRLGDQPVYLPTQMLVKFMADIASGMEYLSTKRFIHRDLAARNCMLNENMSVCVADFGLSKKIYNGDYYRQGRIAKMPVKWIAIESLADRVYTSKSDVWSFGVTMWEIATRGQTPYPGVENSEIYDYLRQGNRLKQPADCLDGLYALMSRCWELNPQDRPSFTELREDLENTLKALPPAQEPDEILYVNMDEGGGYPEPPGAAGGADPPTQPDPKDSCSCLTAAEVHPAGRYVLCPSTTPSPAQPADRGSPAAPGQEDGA
Method: The affinity of several compounds hereof having a substituent on the imidazo[1,2-b]pyridazine moiety at position-6, wherein the substituent comprised one or more ring moieties was evaluated with respect to two TAM kinases: AXL and MERTK. […] The assay uses DNA-tagged kinase, an immobilized ligand, and the test compound. Quantitative polymerase chain reaction (PCR) of the DNT tag was then used to measure the ability of the tested compound to displace the immobilized ligand.

[6] = biological target: MNK2 (Homo sapiens, UniProt Q9HBH9); assay: MNK2 inhibition, in vitro studies at Reaction Biology Corporation; assay type: biochemical; conditions: 50 nM compound, 10 uM ATP
[7] = test system: CT-26 C2 tumor cells; assay: CT-26 in vivo tumor reduction; parameters: species or system BALB/c female mouse; conditions: CT-26, day 17 from start of dosing, oral QD
Method: Each BALB/c female mouse was inoculated subcutaneously at the right flank with CT-26 C2 tumor cells (0.3×10^6/mouse) in 0.1 mL PBS for tumor development. Treatments for the efficacy study were started on day 10 after tumor inoculation when the average tumor size reached approximately 71 mm^3. Each group consisted of 6 tumor-bearing mice. Vehicle control was 25 mM citrate buffer (pH 2.5). HSND80 was dosed orally QD at 15 mg/Kg for 4 days and 10 mg/Kg afterwards. HSND100 was dosed at 15 mg/Kg. Mice were dosed 5 days on and 2 days off (drug holiday). Tumors were measured every other day (L, W, H) to give tumor volume in mm^3.

[8] = Table 1, DiscoverX Eurofins, read-out: Kd MERTK
[9] = Table 1, DiscoverX Eurofins, read-out: Kd AXL

p70S6K, sequence (P23443 whole entry): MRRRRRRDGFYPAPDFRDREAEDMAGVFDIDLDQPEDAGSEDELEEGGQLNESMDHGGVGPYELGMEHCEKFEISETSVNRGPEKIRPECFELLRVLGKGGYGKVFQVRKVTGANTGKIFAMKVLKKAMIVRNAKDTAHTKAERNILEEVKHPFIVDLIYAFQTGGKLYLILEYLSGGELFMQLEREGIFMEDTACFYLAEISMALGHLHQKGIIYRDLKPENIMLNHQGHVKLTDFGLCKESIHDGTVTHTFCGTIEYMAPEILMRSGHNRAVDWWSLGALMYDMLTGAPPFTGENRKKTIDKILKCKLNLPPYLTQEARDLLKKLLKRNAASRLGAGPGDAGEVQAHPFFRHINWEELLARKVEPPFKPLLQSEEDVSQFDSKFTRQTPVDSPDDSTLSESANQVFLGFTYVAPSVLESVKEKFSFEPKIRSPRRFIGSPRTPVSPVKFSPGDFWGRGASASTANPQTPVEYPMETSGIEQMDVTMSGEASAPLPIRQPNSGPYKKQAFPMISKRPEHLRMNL
MNK2, sequence (Q9HBH9 whole entry): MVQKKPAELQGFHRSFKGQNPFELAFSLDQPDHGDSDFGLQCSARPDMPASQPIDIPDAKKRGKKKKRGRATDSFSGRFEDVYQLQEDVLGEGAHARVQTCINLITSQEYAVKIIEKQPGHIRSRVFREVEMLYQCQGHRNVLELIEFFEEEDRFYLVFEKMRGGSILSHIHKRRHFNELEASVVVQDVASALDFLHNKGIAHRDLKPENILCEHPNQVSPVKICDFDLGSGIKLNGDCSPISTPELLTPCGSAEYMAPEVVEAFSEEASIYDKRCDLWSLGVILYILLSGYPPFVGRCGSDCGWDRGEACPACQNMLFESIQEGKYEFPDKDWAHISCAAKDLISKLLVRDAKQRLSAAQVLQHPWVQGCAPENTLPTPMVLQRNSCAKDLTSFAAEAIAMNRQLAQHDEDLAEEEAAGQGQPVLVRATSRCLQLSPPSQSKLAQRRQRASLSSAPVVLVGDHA

Compound: CN1CCN(Cc2ccc(NC(=O)c3cncc(C#Cc4cnc5ccc(N6CCOCC6)nn45)c3)cc2C(F)(F)F)CC1 [HSND41, N-(4-((4-Methylpiperazin-1-yl)methyl)-3-(trifluoromethyl)phenyl)-5-((6-morpholinoimidazo[1,2-b]pyridazin-3-yl)ethynyl)nicotinamide]
- GI50 [1]: 35 nM

Compound: CN(C)CCNc1ccc2ncc(C#Cc3cncc(C(=O)Nc4ccc(CN5CCN(C)CC5)c(C(F)(F)F)c4)c3)n2n1 [HSND39, 5-((6-((2-(Dimethylamino)ethyl)amino)imidazo[1,2-b]pyridazin-3-yl)ethynyl)-N-(4-((4-methylpiperazin-1-yl)methyl)-3-(trifluoromethyl)phenyl)nicotinamide]
- GI50 [1]: 571 nM

Compound: Cc1ccc(C(=O)Nc2ccc(CN3CCN(C)CC3)c(C(F)(F)F)c2)cc1C#Cc1cnc2cccnn12 [ponatinib, Ponatinib, reference compound]
- patients developing some form of thrombosis [2]: about 40%
- inhibition of p70S6K [3]: 38%

- Kd [4, 8]: < 0.17 nM
- Kd [5, 9]: 2.8 nM
Compound: CN1CCN(Cc2ccc(NC(=O)c3cncc(C#Cc4cnc5ccc(N6C[C@H]7C[C@@H]6CO7)nn45)c3)cc2C(F)(F)F)CC1 [HSND150, 5-((6-((1R,4R)-2-Oxa-5-azabicyclo[2.2.1]heptan-5-yl)imidazo[1,2-b]pyridazin-3-yl)ethynyl)-N-(4-((4-methylpiperazin-1-yl)methyl)-3-(trifluoromethyl)phenyl)nicotinamide]

Compound: CN(C)CCN(C)c1ccc2ncc(C#Cc3cncc(C(=O)Nc4ccc(CN5CCN(C)CC5)c(C(F)(F)F)c4)c3)n2n1 [HSND40, 5-((6-((2-(Dimethylamino)ethyl)(methyl)amino)imidazo[1,2-b]pyridazin-3-yl)ethynyl)-N-(4-((4-methylpiperazin-1-yl)methyl)-3-(trifluoromethyl)phenyl)nicotinamide]
- GI50 [1]: 889 nM

- inhibition at 0.05 µM [6]: 94%
- inhibition of p70S6K [3]: 95%
Compound: CN1CCN(Cc2ccc(NC(=O)c3cncc(C#Cc4cnc5ccc(N6CCSCC6)nn45)c3)cc2C(F)(F)F)CC1 [HSND79, N-(4-((4-Methylpiperazin-1-yl)methyl)-3-(trifluoromethyl)phenyl)-5-((6-thiomorpholinoimidazo[1,2-b]pyridazin-3-yl)ethynyl)nicotinamide]

Compound: CN1CCN(Cc2ccc(NC(=O)c3cncc(C#Cc4cnc5ccc(N)nn45)c3)cc2C(F)(F)F)CC1 [HSND37, 5-((6-Aminoimidazo[1,2-b]pyridazin-3-yl)ethynyl)-N-(4-((4-methylpiperazin-1-yl)methyl)-3-(trifluoromethyl)phenyl)nicotinamide]
- GI50 [1]: 413 nM

Compound: CN1CCN(Cc2ccc(NC(=O)c3cncc(C#Cc4cnc5ccc(N6C7CCC6COC7)nn45)c3)cc2C(F)(F)F)CC1 [HSND141, 5-((6-(3-Oxa-8-azabicyclo[3.2.1]octan-8-yl)imidazo[1,2-b]pyridazin-3-yl)ethynyl)-N-(4-((4-methylpiperazin-1-yl)methyl)-3-(trifluoromethyl)phenyl)nicotinamide]
- Kd [4]: 0.22 nM
- Kd [5]: 1.2 nM

- Kd [4, 8]: 0.2 nM
- Kd [5, 9]: 3.7 nM
Compound: CN1CCN(Cc2ccc(NC(=O)c3cncc(C#Cc4cnc5ccc(N6CC7(COC7)C6)nn45)c3)cc2C(F)(F)F)CC1 [HSND149, 5-((6-(2-Oxa-6-azaspiro[3.3]heptan-6-yl)imidazo[1,2-b]pyridazin-3-yl)ethynyl)-N-(4-((4-methylpiperazin-1-yl)methyl)-3-(trifluoromethyl)phenyl)nicotinamide]

- Kd [4, 8]: < 0.17 nM
- Kd [5, 9]: 3.3 nM
Compound: CN1CCN(Cc2ccc(NC(=O)c3cncc(C#Cc4cnc5ccc(N6C[C@@H]7C[C@H]6CO7)nn45)c3)cc2C(F)(F)F)CC1 [HSND151, 5-((6-((1S,4S)-2-Oxa-5-azabicyclo[2.2.1]heptan-5-yl)imidazo[1,2-b]pyridazin-3-yl)ethynyl)-N-(4-((4-methylpiperazin-1-yl)methyl)-3-(trifluoromethyl)phenyl)nicotinamide]

Compound: CC1CN(c2ccc3ncc(C#Cc4cncc(C(=O)Nc5ccc(CN6CCN(C)CC6)c(C(F)(F)F)c5)c4)n3n2)C[C@@H](C)O1 (stereo in doubt) [HSND100, 5-((6-((2R,6R)-2,6-Dimethylmorpholino)imidazo[1,2-b]pyridazin-3-yl)ethynyl)-N-(4-((4-methylpiperazin-1-yl)methyl)-3-(trifluoromethyl)phenyl)nicotinamide]
- tumor reduction compared to vehicle control [7]: 36%

- inhibition at 0.05 µM [6]: 92%
- inhibition of p70S6K [3]: 95%
Compound: CN1CCN(Cc2ccc(NC(=O)c3cncc(C#Cc4cnc5ccc(N6CCN(C)CC6)nn45)c3)cc2C(F)(F)F)CC1 [HSND77, 5-((6-(4-Methylpiperazin-1-yl)imidazo[1,2-b]pyridazin-3-yl)ethynyl)-N-(4-((4-methylpiperazin-1-yl)methyl)-3-(trifluoromethyl)phenyl)nicotinamide]
